Laboratory results from ChEMBL document CHEMBL4813981, “Synthesis and in vitro antibacterial activity of new aminothiazole-oximepiperidone cephalosporins” (2021).
Values after ≈ are worked out from the molar mass of the structure shown.

Tests used:
Format in all cases: functional
Klebsiella pneumoniae [1] = assay: Antibacterial activity against Carbapenem- resistant Klebsiella pneumoniae KR 15-8 assessed as reduction in bacterial growth
Pseudomonas aeruginosa [2] = assay: Antibacterial activity against Carbapenem- sensitive Pseudomonas aeruginosa 17-10 assessed as reduction in bacterial growth
Escherichia coli [3] = assay: Antibacterial activity against ESBLs positive Carbapenem-sensitive Escherichia coli 17-3 assessed as reduction in bacterial growth
Escherichia coli [4] = assay: Antibacterial activity against ESBLs positive Carbapenem-sensitive Escherichia coli 17-21 assessed as reduction in bacterial growth
Pseudomonas aeruginosa [5] = assay: Antibacterial activity against Carbapenem- sensitive Pseudomonas aeruginosa 17-24 assessed as reduction in bacterial growth
Klebsiella pneumoniae [6] = assay: Antibacterial activity against ESBLs negative Carbapenem-sensitive Klebsiella pneumoniae 17-20 assessed as reduction in bacterial growth
Enterobacter cloacae [7] = assay: Antibacterial activity against Enterobacter cloacae 17-4 assessed as reduction in bacterial growth
Acinetobacter baumannii [8] = assay: Antibacterial activity against Carbapenem- resistant Acinetobacter baumannii 17-8 assessed as reduction in bacterial growth
Klebsiella aerogenes [9] = assay: Antibacterial activity against Enterobacter aerogenes 17-4 assessed as reduction in bacterial growth
Klebsiella aerogenes [10] = assay: Antibacterial activity against Enterobacter aerogenes 17-2 assessed as reduction in bacterial growth
Enterobacter cloacae [11] = assay: Antibacterial activity against Enterobacter cloacae 17-7 assessed as reduction in bacterial growth
Klebsiella pneumoniae [12] = assay: Antibacterial activity against Carbapenem- sensitive Klebsiella pneumoniae 17-12 overexpressing extended spectrum beta-lactamases assessed as reduction in bacterial growth
Pseudomonas aeruginosa [13] = assay: Antibacterial activity against Carbapenem- sensitive Pseudomonas aeruginosa 17-22 assessed as reduction in bacterial growth
Klebsiella pneumoniae [14] = assay: Antibacterial activity against Carbapenem- sensitive Klebsiella pneumoniae 17-9 overexpressing extended spectrum beta-lactamases assessed as reduction in bacterial growth
Acinetobacter baumannii [15] = assay: Antibacterial activity against Carbapenem- resistant Acinetobacter baumannii 17-12 assessed as reduction in bacterial growth
Klebsiella pneumoniae [16] = assay: Antibacterial activity against Carbapenem- sensitive Klebsiella pneumoniae 17-5 overexpressing extended spectrum beta-lactamases assessed as reduction in bacterial growth
Klebsiella pneumoniae [17] = assay: Antibacterial activity against Carbapenem- sensitive Klebsiella pneumoniae 17-4 overexpressing extended spectrum beta-lactamases assessed as reduction in bacterial growth
Klebsiella aerogenes [18] = assay: Antibacterial activity against Enterobacter aerogenes 17-3 assessed as reduction in bacterial growth
Pseudomonas aeruginosa [19] = assay: Antibacterial activity against Carbapenem- resistant Pseudomonas aeruginosa 17-8 assessed as reduction in bacterial growth
Escherichia coli [20] = assay: Antibacterial activity against ESBLs positive Carbapenem-sensitive Escherichia coli 17-10 assessed as reduction in bacterial growth
Enterobacter cloacae [21] = assay: Antibacterial activity against Enterobacter cloacae 17-5 assessed as reduction in bacterial growth
Klebsiella pneumoniae [22] = assay: Antibacterial activity against ESBLs negative Carbapenem-sensitive Klebsiella pneumoniae 17-16 assessed as reduction in bacterial growth
Klebsiella pneumoniae [23] = assay: Antibacterial activity against Carbapenem- sensitive Klebsiella pneumoniae 17-3 overexpressing extended spectrum beta-lactamases assessed as reduction in bacterial growth
Escherichia coli [24] = assay: Antibacterial activity against ESBLs negative Carbapenem-sensitive Escherichia coli 17-16 assessed as reduction in bacterial growth
Klebsiella pneumoniae [25] = assay: Antibacterial activity against Carbapenem- resistant Klebsiella pneumoniae KR 15-11 assessed as reduction in bacterial growth
Klebsiella pneumoniae [26] = assay: Antibacterial activity against Carbapenem- resistant Klebsiella pneumoniae KR 15-4 assessed as reduction in bacterial growth
Escherichia coli [27] = assay: Antibacterial activity against ESBLs negative Carbapenem-sensitive Escherichia coli 17-9 assessed as reduction in bacterial growth
Escherichia coli [28] = assay: Antibacterial activity against ESBLs positive Carbapenem-sensitive Escherichia coli 17-8 assessed as reduction in bacterial growth
Pseudomonas aeruginosa [29] = assay: Antibacterial activity against Carbapenem- sensitive Pseudomonas aeruginosa 17-21 assessed as reduction in bacterial growth
Acinetobacter baumannii [30] = assay: Antibacterial activity against Acinetobacter baumannii NCTC 13304 assessed as reduction in bacterial growth
Klebsiella pneumoniae [31] = assay: Antibacterial activity against Carbapenem- resistant Klebsiella pneumoniae KR 15-7 assessed as reduction in bacterial growth
Escherichia coli [32] = assay: Antibacterial activity against Escherichia coli ATCC 25922 assessed as reduction in bacterial growth
Klebsiella pneumoniae [33] = assay: Antibacterial activity against Carbapenem- sensitive Klebsiella pneumoniae 17-8 overexpressing extended spectrum beta-lactamases assessed as reduction in bacterial growth
Klebsiella aerogenes [34] = assay: Antibacterial activity against Enterobacter aerogenes 15-6 assessed as reduction in bacterial growth
Acinetobacter baumannii [35] = assay: Antibacterial activity against Carbapenem- resistant Acinetobacter baumannii 17-6 assessed as reduction in bacterial growth
Klebsiella pneumoniae [36] = assay: Antibacterial activity against ESBLs negative Carbapenem-sensitive Klebsiella pneumonia 15-2 assessed as reduction in bacterial growth
Escherichia coli [37] = assay: Antibacterial activity against ESBLs positive Carbapenem-sensitive Escherichia coli 17-2 assessed as reduction in bacterial growth
Klebsiella pneumoniae [38] = assay: Antibacterial activity against Carbapenem- resistant Klebsiella pneumoniae KR 15-13 assessed as reduction in bacterial growth
Pseudomonas aeruginosa [39] = assay: Antibacterial activity against Pseudomonas aeruginosa ATCC 27853 assessed as reduction in bacterial growth
Escherichia coli [40] = assay: Antibacterial activity against ESBLs positive Carbapenem-sensitive Escherichia coli 17-12 assessed as reduction in bacterial growth
Pseudomonas aeruginosa [41] = assay: Antibacterial activity against Carbapenem- resistant Pseudomonas aeruginosa 17-1 assessed as reduction in bacterial growth
Enterobacter cloacae [42] = assay: Antibacterial activity against Enterobacter cloacae 17-1 assessed as reduction in bacterial growth
Pseudomonas aeruginosa [43] = assay: Antibacterial activity against Carbapenem- resistant Pseudomonas aeruginosa 17-5 assessed as reduction in bacterial growth
Acinetobacter baumannii [44] = assay: Antibacterial activity against Carbapenem- resistant Acinetobacter baumannii 17-11 assessed as reduction in bacterial growth
Acinetobacter baumannii [45] = assay: Antibacterial activity against Carbapenem- resistant Acinetobacter baumannii 17-9 assessed as reduction in bacterial growth
Klebsiella pneumoniae [46] = assay: Antibacterial activity against Klebsiella pneumoniae ATCC BAA-1705 assessed as reduction in bacterial growth
Klebsiella pneumoniae [47] = assay: Antibacterial activity against Carbapenem- resistant Klebsiella pneumoniae KR 15-12 assessed as reduction in bacterial growth
Klebsiella aerogenes [48] = assay: Antibacterial activity against Enterobacter aerogenes 17-5 assessed as reduction in bacterial growth
Escherichia coli [49] = assay: Antibacterial activity against ESBLs positive Carbapenem-sensitive Escherichia coli 17-18 assessed as reduction in bacterial growth
Escherichia coli [50] = assay: Antibacterial activity against ESBLs negative Carbapenem-sensitive Escherichia coli 17-7 assessed as reduction in bacterial growth
Klebsiella aerogenes [51] = assay: Antibacterial activity against Enterobacter aerogenes 17-1 assessed as reduction in bacterial growth
Enterobacter cloacae [52] = assay: Antibacterial activity against Enterobacter cloacae 17-8 assessed as reduction in bacterial growth
Escherichia coli [53] = assay: Antibacterial activity against ESBLs negative Carbapenem-sensitive Escherichia coli 17-1 assessed as reduction in bacterial growth
Acinetobacter baumannii [54] = assay: Antibacterial activity against Carbapenem- resistant Acinetobacter baumannii 17-10 assessed as reduction in bacterial growth
Escherichia coli [55] = assay: Antibacterial activity against ESBLs positive Carbapenem-sensitive Escherichia coli 17-17 assessed as reduction in bacterial growth

SMILES: C[C@@H](O)[C@H]1C(=O)N2C(C(=O)O)=C(S[C@@H]3CN[C@H](C(=O)N(C)C)C3)[C@H](C)[C@H]12 [MEROPENEM]
- MIC (Klebsiella pneumoniae [1]): > 64 mg/L
- MIC (Pseudomonas aeruginosa [2]): 0.25 mg/L (≈ 0.652 µM)
- MIC (Escherichia coli [3]): < 0.03 mg/L
- MIC (Escherichia coli [4]): < 0.03 mg/L
- MIC (Pseudomonas aeruginosa [5]): 2 mg/L (≈ 5.22 µM)
- MIC (Klebsiella pneumoniae [6]): < 0.03 mg/L
- MIC (Enterobacter cloacae [7]): < 0.03 mg/L
- MIC (Acinetobacter baumannii [8]): 32 mg/L (≈ 83.4 µM)
- MIC (Klebsiella aerogenes [9]): 0.125 mg/L (≈ 0.326 µM)
- MIC (Klebsiella aerogenes [10]): 0.06 mg/L (≈ 0.156 µM)
- MIC (Enterobacter cloacae [11]): 0.25 mg/L (≈ 0.652 µM)
- MIC (Klebsiella pneumoniae [12]): < 0.03 mg/L
- MIC (Pseudomonas aeruginosa [13]): 1 mg/L (≈ 2.61 µM)
- MIC (Klebsiella pneumoniae [14]): 0.06 mg/L (≈ 0.156 µM)
- MIC (Acinetobacter baumannii [15]): 16 mg/L (≈ 41.7 µM)
- MIC (Klebsiella pneumoniae [16]): < 0.03 mg/L
- MIC (Klebsiella pneumoniae [17]): 0.06 mg/L (≈ 0.156 µM)
- MIC (Klebsiella aerogenes [18]): < 0.03 mg/L
- MIC (Pseudomonas aeruginosa [19]): 32 mg/L (≈ 83.4 µM)
- MIC (Escherichia coli [20]): < 0.03 mg/L
- MIC (Enterobacter cloacae [21]): 0.06 mg/L (≈ 0.156 µM)
- MIC (Klebsiella pneumoniae [22]): < 0.03 mg/L
- MIC (Klebsiella pneumoniae [23]): < 0.03 mg/L
- MIC (Escherichia coli [24]): < 0.03 mg/L
- MIC (Klebsiella pneumoniae [25]): 32 mg/L (≈ 83.4 µM)
- MIC (Klebsiella pneumoniae [26]): > 64 mg/L
- MIC (Escherichia coli [27]): < 0.03 mg/L
- MIC (Escherichia coli [28]): < 0.03 mg/L
- MIC (Pseudomonas aeruginosa [29]): 2 mg/L (≈ 5.22 µM)
- MIC (Acinetobacter baumannii [30]): 16 mg/L (≈ 41.7 µM)
- MIC (Klebsiella pneumoniae [31]): > 64 mg/L
- MIC (Escherichia coli [32]): < 0.03 mg/L
- MIC (Klebsiella pneumoniae [33]): 0.125 mg/L (≈ 0.326 µM)
- MIC (Klebsiella aerogenes [34]): 0.06 mg/L (≈ 0.156 µM)
- MIC (Acinetobacter baumannii [35]): 32 mg/L (≈ 83.4 µM)
- MIC (Klebsiella pneumoniae [36]): < 0.03 mg/L
- MIC (Escherichia coli [37]): < 0.03 mg/L
- MIC (Klebsiella pneumoniae [38]): 64 mg/L (≈ 167 µM)
- MIC (Pseudomonas aeruginosa [39]): 1 mg/L (≈ 2.61 µM)
- MIC (Escherichia coli [40]): < 0.03 mg/L
- MIC (Pseudomonas aeruginosa [41]): 16 mg/L (≈ 41.7 µM)
- MIC (Enterobacter cloacae [42]): < 0.03 mg/L
- MIC (Pseudomonas aeruginosa [43]): 32 mg/L (≈ 83.4 µM)
- MIC (Acinetobacter baumannii [44]): 32 mg/L (≈ 83.4 µM)
- MIC (Acinetobacter baumannii [45]): 32 mg/L (≈ 83.4 µM)
- MIC (Klebsiella pneumoniae [46]): 32 mg/L (≈ 83.4 µM)
- MIC (Klebsiella pneumoniae [47]): 32 mg/L (≈ 83.4 µM)
- MIC (Klebsiella aerogenes [48]): 0.125 mg/L (≈ 0.326 µM)
- MIC (Escherichia coli [49]): < 0.03 mg/L
- MIC (Escherichia coli [50]): < 0.03 mg/L
- MIC (Klebsiella aerogenes [51]): 0.125 mg/L (≈ 0.326 µM)
- MIC (Enterobacter cloacae [52]): < 0.03 mg/L
- MIC (Escherichia coli [53]): < 0.03 mg/L
- MIC (Acinetobacter baumannii [54]): 16 mg/L (≈ 41.7 µM)
- MIC (Escherichia coli [55]): < 0.03 mg/L
